Source: patent US20080234183A1, “Cell Penetrating Peptides” (priority 2002, published 2008)
Where no end group is shown, it is not given here. [ ]: non-standard residue; d: D form.

Experiments:
[1] = test system: porcine left anterior descending coronary artery; assay: Blood vessel contraction measurement
Description: Dissected porcine hearts (260-390 g) were transported from local slaughterhouse to the laboratory in ice-cold Krebs-Henseleit solution (119 mM NaCl, 23.8 mM NaHCO3, 3 mM KCl, 1.14 mM NaH2PO4, 1.63 mM CaCl2, and 16.5 mM glucose). Left anterior descending coronary artery and great cardiac vein were isolated. Part of each blood vessel was used immediately after Isolation for contraction assays while part of it was kept frozen in liquid nitrogen for the membrane preparation. In some experiments blood vessels in which endothelium was mechanically removed were used. The same procedure was used also for the preparation of human umbilical blood vessels; umbilical cords were obtained from Obstetric Clinic of Ljubljana Clinical Center, Slovenia.
The measurements were performed as already described (20). Rings (5 mm wide) of blood vessels were cut and mounted into 10 ml tissue chamber filled with Krebs-Henseleit solution (37° C.; pH=7.4) which was oxygenated with the mixture of ^95% O2 and 5% CO2. Initial tension of 50 mN was applied and after equilibration 30 mM KCl was added to obtain stable Isometric contraction. The presence of endothelium was verified with substance P. After washing out of KCl and substance P and after the equilibration of the system was restored, test peptide was added into the tissue chamber and blood vessel contraction was recorded.

[2] = test system: pancreatic islets; assay: Insulin release from isolated pancreatic islets; type: cell-based, rat
Description: Effects of the peptides on insulin secretion were assessed in pancreatic islets from male Wistar rats weighing 200-250 g. Islets were isolated aseptically by colagenase digestion, and then cultured overnight at 37° C. in RPMI 1640 culture medium supplemented with 10% heat-inactivated fetal calf serum. After culturing, analysis of insulin secretion was performed by incubation at 37° C. for 1 h in batches of 3 islets, each in 300 μl of Krebs-Ringer bicarbonate buffer with 10 mM Hepes and 2 mg/ml bovine serum albumin, pH 7.4. The incubation medium contained either 3.3 or 16.7 mM glucose, with or without peptide. In one experimental series, batches of 5×10^5 Rin m5F cells were incubated under similar conditions, except that glucose was omitted from the medium. Aliquots of the incubation medium were taken for radioimmunoassay of Insulin. Insulin secretion is expressed as IU insulin/islet/h and IU insulin/5×10^5 cells/h, respectively. Statistical significance was evaluated with the Student's t-test with p<0.05 regarded as significant

[3] = test system: N2A mouse neuroblastoma cells; assay: Cellular internalisation assay of fluorescein-labelled APP and PS peptides; type: cell-based; conditions: for cellular internalisation / cellular localisation: 10 μM, 37°; for cellular internalisation: 60 min
Description: Mouse neuroblastoma cells, N2A, were cultivated in Dulbecco's minimal essential medium with Glutamax-I, supplemented with 10% (v/v) fetal bovine serum, penicillin (100 U/ml) and streptomycin (100 μg/ml).
The cells used for Internalisation were seeded out on round glass coverslips in 24well plates. One day post seeding, the cells were semi confluent, and the medium was changed to serum-free medium. The fluorescein-labelled peptides were added, with a final concentration of 10 μM. After 60 min of incubation at 37°, the cells were washed 3 times with 1 ml of Hepes-Krebbs-Ringer-(HKR) buffer and fixed with 3% paraformaldehyde solution in phosphate-buffered saline solution (PBS) for 10 minutes. The cells were then washed 3 times with 1 ml of HKR-buffer, and the coverslips were mounted and sealed for microscopy studies.
The cell type used for the internalisation assays with the fluorescein'tagged peptides was N2A mouse neuroblastoma cells. This cell-line is commonly used in association with Alzheimer's disease studies, and serves as a good model cell-line for these internalisation assays where peptides derived from proteins involved in Alzheimer's disease were examined. These Internalisation assays were performed at 37° C., therefore the internalisation by endocytosis cannot be excluded.

[4] = In vivo effect of GOP on insulin release and blood glucose level; parameters: species or system Wistar rats
Description: Healthy male Wistar rats, weighing approximately 250 g, were fasted over-night. After an initial blood sample obtained by incision of the distal tail vein (0 min), GOP (M528, 100 nmol/kg; n=4) was injected intraperitoneally, followed by another i.p. injection of glucose (1 g/kg). Control rats (n=4) were injected with saline and glucose. Additional blood samples were taken from the tail vein after 10 and 30 min. Blood glucose levels were determined by a glucose oxidase method and plasma insulin levels by radioimmunoassay.

[5] = test system: human Bowes melanoma cells; assay: Cellular penetration of biotin-labelled peptide; type: cell-based
Description: The medium containing serum was exchanged for a serum-free medium and water solution of the peptide was added directly into the medium to reach the concentration of 10 μM. A negative control was always used, because living cells all the time have some biotin inside. To control cells pure water instead peptide solution were added, and further handled alike all other. The cells were incubated for 1 h at 37° C. or 4° C. in 5% CO2 enriched air. The cells were washed three times with PBS, fixed and permeabilised with methanol for 10 min at −20° C., washed again with PBS and Incubated for 1 h in a 5% (w/v) solution of fat-free milk in PBS in order to decrease non-specific binding. The peptides were visualised by staining with 0.1 μM streptavidin-FITC in the same solution for 1 hour at room temperature. The cell nuclei were visualised by staining with DNA with Hoechst 33258 (0.5 μg/ml) for 5 min, thereafter the coverslips were washed 3 times with PBS and mounted in 20% glycerol in PBS. The images were obtained by Zeiss Axioplan 2 microscope (Carl Zeiss Inc., Germany).

[6] = test system: Bowes cells; assay: Peptide uptake in attached Bowes cells, fluorescence in cell lysate; type: cell-based, human; conditions: Fluoresceinyl peptide, 5 μM, 30 min, 37° C.
Description: Cells were detached with trypsin (Invitrogen, Sweden), dissolved in culture media and centrifuged (1000×g for 10 min at RT). The cells were resuspended, counted and aliqoted in HKR on Ice, 300 000 cells/tube. Abz-labelled peptide was incubated for 15 and 30 min together with the cells in suspension, on a shaking 37° C. water bath. To stop the uptake or outflow, trypsin solution was added for 3 min. The cells were spun down at 1000×g for 10 min at 4° C. The pellets were resuspended in HKR for fluorescence detection, or for the outflow samples, incubated again with peptide-free HKR. Fluorescence was read at 320/420 nm on a Spectramax Gemini XS (Molecular Devices, Calif.). The intracellular concentrations were calculated from a standard curve of Abz-labelled peptides. […] Additionally, a varianty of the same assay was applied: the cells were seeded in a 24well plate at a density of 100 000 cells/well, the day before. Cells are incubated at 5 μM peptide concentration for 30 min at 37° C. Trypsin treated, washed and lysed in hydrochloric acid. The fluorescence was measured as described for the suspension assay.
Human melanoma cells Bowes, were cultured in MEM using standard cell culturing techniques, and seeded at density of 100 000 cells/well in 24 well-plates the day before experiments were conducted.

[7] = test system: N2A cells; type: cell-based, mouse
[8] = test system: LoVo cells; assay: Internalisation of biotinylated selCPPs, fluorescence microscopy; type: cell-based, human
Description: One aspect of the present invention thus comprises a method for screening the cellular uptake of a broad variety of CPPs in vitro, wherein cells are grown on glass cover slips to suitable, such as 50%, density, whereupon the media is changed to serum free and a blotinylated peptide solution is added. The cells are then incubated, washed, fixed and the peptides are visualised by staining with, e.g. avidin-FITC, or streptavidin-TRITC, and the cell nuclei are counterstained, e.g. with Hoechst. Images are preferably obtained with a fluorescence microscope and evaluated.
FIG. 5. Example of inactivated selCPP. Internalisation of YTA-2 (A) compared to YTA-2 ps (B) In LoVo cells, both biotynilated peptides detected by TRITC-avidin at 37° C.
The cells were grown on round glass cover slips (12 mm, GTF, Sweden) in a 24-well plate to approximately 50% confluence. The media was changed to serum free and the biotinylated peptide solutions were added. The cells were incubated for 30 min at 37 or 4° C. The cells were washed twice with PBS, fixed with 4% paraformaldehyde solution 15 min at room temperature (dark) and then permeabilised in 30 mM HEPES buffer containing 0.5% w/v Triton X-100, 3 min on Ice. Sites for unspecific binding were blocked In PBS containing 3% (w/v) bovine serum albumin, overnight at 4° C. The peptides were visualised by staining with avidin-FrTC or streptavidin-TRITC (Molecular Probes, the Netherlands). The cell nuclei were stained with Hoechst 33258 (0.5 μg/ml) for 5 min, after which the cover slips were washed 3 times with PBS and mounted in 25% glycerol in PBS. The images were obtained with a Leica DM IRE2 fluorescence microscope (Leica Microsystem., Sweden) and processed in PhotoShop 6.0 software (Adobe Systems Inc., CA) (See e.g. FIG. 38-40).

COc1ccc2c(c1)CC[C@@H]1[C@@H]2CC[C@]2(C)[C@@H](NCCCCCCN3C(=O)C=CC3=O)CC[C@@H]12 [Peptide U73122]
effect on tonus of the artery ([1]; 30 μM): did not affect tonus
effect on M511-induced contraction after posterior administration ([1]; 30 μM, 16 μM M511): did not modify blood vessel contraction
decrease of the effect of M511 ([1]; 30 μM, added 30 minutes prior to 16 μM M511): more than 50%

IAIAKLAA amide (IAIAKLAA-NH2) [GOP11]
Insulin release at 16.7 mM glucose ([2]; 10 μM peptide): inh−
Insulin release at 3.3 mM glucose ([2]; 100 μM peptide): inh−
Insulin release at 16.7 mM glucose ([2]; 100 μM peptide): inh−−

IAIAKLKA amide (IAIAKLKA-NH2) [GOP4]
Insulin release at 16.7 mM glucose ([2]; 10 μM peptide): inh−−
Insulin release at 3.3 mM glucose ([2]; 100 μM peptide): inh−
Insulin release at 16.7 mM glucose ([2]; 100 μM peptide): inh−

IATVIFITLVMLKKK [APP (712-726) V717F mutant]
aggregation on addition to the 24-well plate [3]: formed aggregates
cellular internalisation [3]: do not reveal any no uptake

IATVIVITLVMLKKK [APP (712-726) WT]
aggregation on addition to the 24-well plate [3]: formed aggregates
cellular internalisation [3]: do not reveal any no uptake

IVIAKLAA amide (IVIAKLAA-NH2) [GOP5]
Insulin release at 16.7 mM glucose ([2]; 10 μM peptide): inh−
Insulin release at 3.3 mM glucose ([2]; 100 μM peptide): no
Insulin release at 16.7 mM glucose ([2]; 100 μM peptide): no

IVIAKLKA amide (IVIAKLKA-NH2) [GOP]
stimulation of insulin release ([2]; 10 μM GOP, 3.3 mM glucose, p<0.001): 5 fold
Insulin release at 16.7 mM glucose ([2]; 10 μM peptide): stim+
Insulin release at 3.3 mM glucose ([2]; 100 μM peptide): no
Insulin release at 16.7 mM glucose ([2]; 100 μM peptide): stim++
stimulation of insulin release ([2]; 1 and 10 FM GOP, 16.7 mM glucose): 4 fold
plasma insulin ([4]; 100 nmol/kg i.p. + glucose 1 g/kg, after 10 min, vs control rats p<0.05): increased significantly
blood glucose levels ([4]; 100 nmol/kg i.p. + glucose 1 g/kg, at 10 min, vs control rats p<0.02): significantly lower
insulin and glucose levels vs control rats ([4]; after 30 min): no differences

IVIAKLKANLMCKTCRLAK-amide (IVIAKLKANLMCKTCRLAK-NH2; cysteine pairing not given here) [Peptide M569]
cellular penetration ([5]; 37° C. and 4° C.): temperature independent penetration
cellular localisation ([5]; Bowes cells, 37° C.): both cytosolic and plasma membrane localisation

IVIAKLRA amide (IVIAKLRA-NH2) [GOP3]
Insulin release at 16.7 mM glucose ([2]; 10 μM peptide): stim+
Insulin release at 3.3 mM glucose ([2]; 100 μM peptide): stim++
Insulin release at 16.7 mM glucose ([2]; 100 μM peptide): stim++

IVVSKLKA amide (IVVSKLKA-NH2) [GOP16]
Insulin release at 16.7 mM glucose ([2]; 10 μM peptide): no
Insulin release at 3.3 mM glucose ([2]; 100 μM peptide): no
Insulin release at 16.7 mM glucose ([2]; 100 μM peptide): no

KKAAQIRSQVMTHLRVI [APP (521-536)]
cellular localisation [3]: both in the nucleus and the membrane
cellular internalisation [3]: has cell-penetrating abilities

LRSWRVIIRNGQR [LRSW-3]
% of added fluorescence in cell lysate [6]: 1.9%

LRSWVISRSIRKAA [LRSW-1]
% of added fluorescence in cell lysate [6]: 1.4%

MANLGYWLLALFVTMWTDVGLCKKRPKP [mouse PrPC(1-28)]
cargo delivery [7]: ability to carry a cargo avidin into cells
cell-penetrating activity [7]: is indeed a CPP
cellular localization [7]: perinuclear localization

SGESLAY-YTAIAWVKAFIRKLRK (SGESLAYYTAIAWVKAFIRKLRK) [YTA-2ps]
Comment (staining/localisation) [8]: bind the plasma
% of added fluorescence in cell lysate [6]: 3.5%

Sar^1-Thr^8-angiotensin II
effect on contraction induced by M511 ([1]; 45 μM antagonist): unable to affect
effect on contraction induced by angiotensin II ([1]; 45 μM antagonist): able to revert

TP10 [reference compound]
% of added fluorescence in cell lysate [6]: 1.8%

Transportan [reference compound]
% of added fluorescence in cell lysate [6]: 10.5%

VATKSVSVFYTRK [presenilin-1 (97-109) deletion analogue]
cellular localisation [3]: mostly localised in the cytosole
cellular internalisation [3]: showed cell-penetrating abilities

VVLYKYRCYKVI [presenilin-1 (151-162)]
cellular internalisation [3]: Identical increase in fluorescence

all-D-(IVIAKLKA) amide ([dI][dV][dI][dA][dK][dL][dK][dA]-NH2; N-terminus assumed; SMILES CC[C@@H](C)[C@@H](N)C(=O)N[C@@H](C(=O)N[C@@H](C(=O)N[C@H](C)C(=O)N[C@H](CCCCN)C(=O)N[C@H](CC(C)C)C(=O)N[C@H](CCCCN)C(=O)N[C@H](C)C(N)=O)[C@H](C)CC)C(C)C) [GOP6]
Insulin release at 16.7 mM glucose ([2]; 10 μM peptide): inh−
Insulin release at 3.3 mM glucose ([2]; 100 μM peptide): stim+
Insulin release at 16.7 mM glucose ([2]; 100 μM peptide): no

angiotensin: angiotensin II, AT1 receptor agonist
contraction effect compared with 30 mM KCl ([1]; 1 μM): almost the same as the effect of 30 mM KCl
